Test results reported in the NIST ThermoML archive (doi:10.1016/j.jct.2018.04.009).

Assays:
[1] = Crystal; Adiabatic calorimetry
[2] = Molar enthalpy of transition or fusion; conditions: Crystal; Adiabatic calorimetry
[3] = molar heat capacity at constant pressure; conditions: 101.33 kPa, Small (less than 1 g) adiabatic calorimetry

c1ccc(Oc2ccccc2)cc1 [diphenyl ether]
Conditions | Molar enthalpy of transition or fusion [kcal/mol] | Triple point temperature [K]
[1] | – | 299.96
[2] | 4.092 | –

[3]
Conditions | molar heat capacity at constant pressure [J/K/mol]
282.08 K, Crystal | 202.2
283.34 K, Crystal | 202.92
285.84 K, Crystal | 203.66
287.09 K, Crystal | 205.43
288.33 K, Crystal | 206.1
289.59 K, Crystal | 207.25
290.84 K, Crystal | 208.01
292.1 K, Crystal | 209.17
321.46 K, Liquid | 276.46
323.17 K, Liquid | 278.21
324.89 K, Liquid | 278.93
326.63 K, Liquid | 279.41
328.37 K, Liquid | 279.66
330.1 K, Liquid | 280.76
331.85 K, Liquid | 281.87
333.61 K, Liquid | 282.69
335.38 K, Liquid | 283.24
